Holding throughout (test): relative viability (nuclei count vs DMSO), 5 days (fraction); higher = more cells survive
One assay deals with NCI-H2228. In a few lines:
(§1)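 Five library-drug doses in √10 steps were combined with a fixed anchor-drug dose, or a single drug was given alone, by pin tool to lung cancer cell lines in 1536-well plates the day after seeding. Nuclei were stained and counted after 5 days. Relative viability is the nuclei count in treated wells over that in vehicle wells, taken as the median of duplicate plates.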

A further assay relates to NCI-H1648. In a few lines:
as §1

The next assay relates to ABC-1. In outline: as §1
The test system of a further assay is NCI-H2009. In a few lines:
as §1

Another assay has as its system EMC-BAC-2. In a few lines:
as §1

In another assay the test system is NCI-H1703. In outline: as §1

On to `Cc1csc(=NC2CCCCC2)n1/N=C/c1ccc(O)c(O)c1O` [MIM1] + CC(=O)c1c(C)c2cnc(Nc3ccc(N4CCNCC4)cn3)nc2n(C2CCCC2)c1=O [Palbociclib] (partner 0.5 µM), for which the relative viability is 0.835 in the assay on NCI-H2228 (first compound 0.2 µM); 0.646 in the assay on NCI-H2228 (first compound 0.6325 µM); 0.899 in the assay with NCI-H2228 (first compound 2 µM); 0.177 in the assay on NCI-H2228 (first compound 6.325 µM); 0.133 with NCI-H2228 (first compound 20 µM); 0.262 in the assay on NCI-H1648 (first compound 0.2 µM). For the same compound, the relative viability in the assay on NCI-H1648 (first compound 0.6325 µM) turned out to be 0.284; in the assay on NCI-H1648 (first compound 2 µM), 0.311; with NCI-H1648 (first compound 6.325 µM), 0.276; with NCI-H1648 (first compound 20 µM) it was 0.248; with ABC-1 (first compound 0.2 µM), 0.603; in the assay on ABC-1 (first compound 0.6325 µM) it was 0.988. Moreover, the relative viability in the assay on ABC-1 (first compound 2 µM) was 0.544; with ABC-1 (first compound 6.325 µM), 0.406; in the assay with ABC-1 (first compound 20 µM) it was 0.473; with NCI-H2009 (first compound 0.2 µM) it was 0.288; in the assay on NCI-H2009 (first compound 0.6325 µM), 0.266; in the assay with NCI-H2009 (first compound 2 µM) it was 0.331. For the same compound, the relative viability in the assay on NCI-H2009 (first compound 6.325 µM) stood at 0.167; in the assay with NCI-H2009 (first compound 20 µM) it was 0.122; in the assay on EMC-BAC-2 (first compound 0.2 µM) it was 0.543; with EMC-BAC-2 (first compound 0.6325 µM), 0.542; in the assay with EMC-BAC-2 (first compound 2 µM) it was 0.476; in the assay with EMC-BAC-2 (first compound 6.325 µM), 0.492. In the assay with EMC-BAC-2 (first compound 20 µM), the relative viability was 0.244.

`Cc1csc(=NC2CCCCC2)n1/N=C/c1ccc(O)c(O)c1O` [MIM1] + NC(=O)Nc1cc(-c2cccc(F)c2)sc1C(=O)N[C@H]1CCCNC1 [AZD7762] (partner 0.2 µM): the relative viability came out at 0.615 in the assay on NCI-H1648 (first compound 0.2 µM); 0.718 in the assay with NCI-H1648 (first compound 0.6325 µM); 0.679 in the assay on NCI-H1648 (first compound 2 µM); 0.677 in the assay with NCI-H1648 (first compound 6.325 µM); 0.436 in the assay on NCI-H1648 (first compound 20 µM); 0.664 with ABC-1 (first compound 0.2 µM). For the same compound, the relative viability in the assay on ABC-1 (first compound 0.6325 µM) worked out at 0.896; in the assay with ABC-1 (first compound 2 µM) it was 0.814; in the assay with ABC-1 (first compound 6.325 µM) it was 0.788; in the assay with ABC-1 (first compound 20 µM), 0.341; in the assay on NCI-H1703 (first compound 0.2 µM) it was 0.124; in the assay with NCI-H1703 (first compound 0.6325 µM), 0.134. Moreover, the relative viability turned out to be 0.107 in the assay on NCI-H1703 (first compound 2 µM); 0.112 in the assay on NCI-H1703 (first compound 6.325 µM); 0.122 in the assay on NCI-H1703 (first compound 20 µM); 1.12 with EMC-BAC-2 (first compound 0.2 µM); 0.776 with EMC-BAC-2 (first compound 0.6325 µM); 1.09 with EMC-BAC-2 (first compound 2 µM). In addition, the relative viability in the assay with EMC-BAC-2 (first compound 6.325 µM) is 0.999; with EMC-BAC-2 (first compound 20 µM) it was 0.314.

Take `Cc1csc(=NC2CCCCC2)n1/N=C/c1ccc(O)c(O)c1O` [MIM1] + Nc1nc2[nH]cc(CCc3ccc(C(=O)N[C@@H](CCC(=O)O)C(=O)O)cc3)c2c(=O)[nH]1 [Pemetrexed] (partner 0.2 µM): the relative viability stood at 0.386 in the assay on NCI-H2228 (first compound 0.2 µM); 0.345 in the assay with NCI-H2228 (first compound 0.6325 µM); 0.347 with NCI-H2228 (first compound 2 µM); 0.168 in the assay with NCI-H2228 (first compound 6.325 µM); 0.152 in the assay with NCI-H2228 (first compound 20 µM); 0.874 in the assay on NCI-H1648 (first compound 0.2 µM). Also, the relative viability stood at 0.688 in the assay on NCI-H1648 (first compound 0.6325 µM); 0.584 with NCI-H1648 (first compound 2 µM); 0.544 in the assay on NCI-H1648 (first compound 6.325 µM); 0.455 in the assay with NCI-H1648 (first compound 20 µM); 1.03 in the assay on NCI-H2009 (first compound 0.2 µM); 1.05 in the assay on NCI-H2009 (first compound 0.6325 µM). For the same compound, the relative viability in the assay on NCI-H2009 (first compound 2 µM) was found to be 1.09; with NCI-H2009 (first compound 6.325 µM) it was 0.916; in the assay with NCI-H2009 (first compound 20 µM), 0.884; in the assay with EMC-BAC-2 (first compound 0.2 µM), 0.421; in the assay on EMC-BAC-2 (first compound 0.6325 µM), 0.436; in the assay on EMC-BAC-2 (first compound 2 µM), 0.432. Besides, the figures for the relative viability with EMC-BAC-2 (first compound 6.325 µM) and in the assay on EMC-BAC-2 (first compound 20 µM) were 0.448 and 0.354, respectively.

Turning to `Cc1cn(-c2cc(NC(=O)c3ccc(C)c(Nc4nccc(-c5cccnc5)n4)c3)cc(C(F)(F)F)c2)cn1` [Nilotinib] + CC(=O)Nc1cccc(-n2c(=O)n(C3CC3)c(=O)c3c(Nc4ccc(I)cc4F)n(C)c(=O)c(C)c32)c1 [Trametinib] (partner 0.02 µM), the relative viability in the assay on NCI-H2228 (first compound 0.001 µM) amounted to 0.437; in the assay with NCI-H2228 (first compound 0.003162 µM), 0.552; with NCI-H2228 (first compound 0.01 µM), 0.576; with NCI-H2228 (first compound 0.03162 µM), 0.255; in the assay on NCI-H2228 (first compound 0.1 µM) it was 0.295; in the assay with NCI-H1648 (first compound 0.001 µM) it was 0.436. For the same compound, the relative viability in the assay on NCI-H1648 (first compound 0.003162 µM) stood at 0.434; with NCI-H1648 (first compound 0.01 µM), 0.44; in the assay on NCI-H1648 (first compound 0.03162 µM) it was 0.331; with NCI-H1648 (first compound 0.1 µM), 0.329; in the assay with NCI-H2009 (first compound 0.001 µM), 0.232; with NCI-H2009 (first compound 0.003162 µM), 0.203. In addition, the relative viability was determined as 0.278 in the assay on NCI-H2009 (first compound 0.01 µM); 0.2 in the assay on NCI-H2009 (first compound 0.03162 µM); 0.197 with NCI-H2009 (first compound 0.1 µM); 0.874 with EMC-BAC-2 (first compound 0.001 µM); 0.697 with EMC-BAC-2 (first compound 0.003162 µM); 0.849 in the assay with EMC-BAC-2 (first compound 0.01 µM). Besides, the relative viability in the assay on EMC-BAC-2 (first compound 0.03162 µM) worked out at 0.604; in the assay with EMC-BAC-2 (first compound 0.1 µM), 0.65.

(Values after the supplement of paper PMC10307832.)
